Test results from US8470849B2, “7-azaindole derivatives as selective 11-β-hydroxysteroid dehydrogenase type 1 inhibitors” (Merck Patent GmbH, priority 2007, dated 2013).
pIC50: −log10 of the molar value.

Tests used:
Format in all cases: biochemical
[1] = target: T1, human 11-beta HSD-1 (Homo sapiens, UniProt P28845); experiment: 11beta-HSD1 enzyme assay, human recombinant enzyme (HTRF cortisol); conditions: for pIC50: human recombinant enzyme from E. Coli, cortisone/NADPH, 150 minutes at 37° C., read-out: Inhibition of human 11-beta HSD-1 IC50; for Selectivity Ratio human HSD2/HSD1: ratio of IC50 human HSD2 to human HSD1
T1 construct: made in house; host or cells: E. coli
Protocol: (§1) Human recombinant 11 beta-hydroxysteroid dehydrogenase type 1 (11 beta-HSD1) and type 2 (11beta-HSD2) enzymes were expressed in E. Coli. Mice and Rat liver microsome fractions were purchased from TEBU.
(§2) Reactions were initiated by addition of 10 μl 11beta-HSD1 (3 μg) from E. Coli, either as microsome fractions from rat and mice liver (2,5 μg). Following mixing, the plates were shaken for 150 minutes at 37° C. The reactions were terminated with 10 μl Acid-18beta glycyrrhetinic stop solution. Determinations of cortisol levels in 11 beta-HSD1 preparations were monitored by HTRF (HTRF cortisol assay from C is bio international).

[2] = target: T2, rat 11-beta HSD-1 (Rattus norvegicus, UniProt P16232); experiment: 11beta-HSD1 enzyme assay, rat liver microsome fractions (HTRF cortisol); conditions: for pIC50: read-out: Inhibition of rat 11-beta HSD-1 IC50
T2 construct: Mice and Rat liver microsome fractions were purchased from TEBU; tissue TEBU; host or cells: rat liver microsome fractions
Protocol: as §1, §2

[3] = target: T3, mouse 11-beta HSD-1 (Mus musculus, UniProt P50172); experiment: 11beta-HSD1 enzyme assay, mice liver microsome fractions (HTRF cortisol); conditions: for pIC50: read-out: Inhibition of mouse 11-beta HSD-1 IC50
T3 construct: Mice and Rat liver microsome fractions were purchased from TEBU; tissue TEBU; host or cells: mouse liver microsome fractions
Protocol: as §1, §2

[4] = target: T4, human 11-beta HSD-2 (Homo sapiens, UniProt P80365); experiment: 11beta-HSD2 enzyme assay, human recombinant enzyme; conditions: cortisol/NAD, read-out: Inhibition of human 11-beta HSD-2 IC50
T4 construct: made in house; host or cells: E. coli
T4 sequence (P80365 1-405): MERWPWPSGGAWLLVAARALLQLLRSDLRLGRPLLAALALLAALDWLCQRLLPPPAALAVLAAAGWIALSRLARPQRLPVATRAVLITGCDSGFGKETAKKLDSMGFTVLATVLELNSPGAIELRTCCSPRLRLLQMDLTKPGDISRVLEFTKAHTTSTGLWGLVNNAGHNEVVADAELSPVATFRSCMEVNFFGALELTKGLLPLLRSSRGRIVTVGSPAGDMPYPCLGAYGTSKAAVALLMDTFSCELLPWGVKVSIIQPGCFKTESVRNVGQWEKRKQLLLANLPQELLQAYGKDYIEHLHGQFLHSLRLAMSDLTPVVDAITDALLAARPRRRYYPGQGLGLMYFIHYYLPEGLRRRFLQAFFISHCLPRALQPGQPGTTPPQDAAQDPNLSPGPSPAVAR
Excerpt: as §1

T3 sequence (P50172 whole entry): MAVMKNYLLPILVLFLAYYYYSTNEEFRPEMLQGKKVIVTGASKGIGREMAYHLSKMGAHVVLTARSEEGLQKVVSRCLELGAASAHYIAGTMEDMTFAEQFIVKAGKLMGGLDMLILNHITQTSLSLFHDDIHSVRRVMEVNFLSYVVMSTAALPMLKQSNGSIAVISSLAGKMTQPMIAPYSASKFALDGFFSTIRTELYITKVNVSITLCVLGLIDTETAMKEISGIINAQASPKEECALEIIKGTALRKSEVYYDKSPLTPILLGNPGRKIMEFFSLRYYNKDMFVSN
T1 sequence (P28845 whole entry): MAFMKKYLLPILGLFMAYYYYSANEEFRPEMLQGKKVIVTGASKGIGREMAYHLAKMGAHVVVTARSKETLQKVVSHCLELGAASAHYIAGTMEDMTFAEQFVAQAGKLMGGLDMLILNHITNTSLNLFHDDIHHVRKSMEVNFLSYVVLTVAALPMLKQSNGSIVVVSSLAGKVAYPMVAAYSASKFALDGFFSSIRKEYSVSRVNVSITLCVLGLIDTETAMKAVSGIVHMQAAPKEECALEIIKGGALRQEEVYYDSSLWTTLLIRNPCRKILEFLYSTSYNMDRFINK
T2 sequence (P16232 whole entry): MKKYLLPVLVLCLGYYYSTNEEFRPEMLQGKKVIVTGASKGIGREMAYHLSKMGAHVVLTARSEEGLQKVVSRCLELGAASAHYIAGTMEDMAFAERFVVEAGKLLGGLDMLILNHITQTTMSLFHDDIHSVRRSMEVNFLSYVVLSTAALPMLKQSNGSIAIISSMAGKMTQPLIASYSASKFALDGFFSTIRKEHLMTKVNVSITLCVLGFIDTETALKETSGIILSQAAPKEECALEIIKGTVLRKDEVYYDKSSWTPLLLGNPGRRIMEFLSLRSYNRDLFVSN

SMILES: O=C(C1CCCCC1)N1CCC(c2c[nH]c3ncccc23)C1 (stereo not shown) [Ex. 3, (Cycloxexyl)-[3-(1H-pyrrolo[2,3-b]pyridine-3-yl)-pyrrolidine-1-yl]-methanone]
- pIC50 [1]: 6.27
- pIC50 [2]: 6.29
- pIC50 [3]: 6.02

SMILES: CN(C)c1ccc(C(=O)N2CCC(c3c[nH]c4ncccc34)C2)cc1 (stereo not shown) [Ex. 7, (4-Dimethylaminophenyl)-[3-(1H-pyrrolo[2,3-b]pyridine-3-yl)-pyrrolidine-1-yl]-methanone]
- pIC50 [2]: 7.37
- pIC50 [4]: < 5.00
- pIC50 [3]: 6.77

SMILES: O=C(N1CCC(c2c[nH]c3ncccc23)C1)C1(c2ccccc2)CC1 (stereo not shown) [Ex. 8, (1-Phenyl-cyclopropyl)-[3-(1H-pyrrolo[2,3-b]pyridine-3-yl)-pyrrolidine-1-yl]-methanone]
- pIC50 [1]: 7.30
- Selectivity Ratio human HSD2/HSD1 [1]: >200
- pIC50 [2]: 7.32

SMILES: CC(C)(C(=O)N1CCC(c2c[nH]c3ncccc23)C1)c1ccc(Cl)cc1 (stereo not shown) [Ex. 9, 2-(4-Chlorophenyl)-2-methyl-1-[3-(1H-pyrrolo[2,3-b]pyridine-3-yl)-pyrrolidine-1-yl]-propan-1-one]
- pIC50 [1]: 8.01
- Selectivity Ratio human HSD2/HSD1 [1]: > 1000
- pIC50 [2]: 6.04

SMILES: CC(C)(C(=O)N1CCC(c2c[nH]c3ncccc23)CC1)N1CCN(c2ccc(C(F)(F)F)cn2)CC1 [Ex. 13, 2-Methyl-1-[4-(1H-pyrrolo[2,3-b]pyridin-3-yl)-piperidine-1-yl]-2-[4-(5-trifluoromethyl-pyridine-2-yl)-piperazine-1-yl]-propan-1-one]
- pIC50 [1]: 5.94

SMILES: CC(C)(COc1ccc(F)cc1)CC(=O)N1CCC(c2c[nH]c3ncccc23)CC1 [Ex. 14, 4-(4-Fluoro-phenoxy)-3,3-dimethyl-1-[4-(1H-pyrrolo[2,3-b]pyridine-3-yl)-piperidine-1-yl]-butan-1-one]
- pIC50 [1]: 6.96
- Inhibition of rat 11-beta HSD-1, activity in % of Ctrl ([2]; at 1 μM): 85% of Ctrl
- Inhibition of mouse 11-beta HSD-1, activity in % of Ctrl ([3]; at 1 μM): 86% of Ctrl

SMILES: CC(C)(COc1ccc(F)cc1)CC(=O)N1CCC(c2c[nH]c3ncccc23)C1 (stereo not shown) [Ex. 17, 4-(4-Fluoro-phenoxy)-3,3-dimethyl-1-[3-(1H-pyrrolo[2,3-b]pyridine-3-yl)-pyrrolidine-1-yl]-butan-1-one]
- pIC50 [1]: 7.80
- pIC50 [3]: 5.68

SMILES: O=C(CS(=O)(=O)c1ccc(Cl)cc1)N1CCC(c2c[nH]c3ncccc23)C1 (stereo not shown) [Ex. 20, 2-(4-Chloro-benzenesulfonyl)-1-[3-(1H-pyrrolo[2,3-b]pyridine-3-yl)-pyrrolidine-1-yl]-ethanone]
- pIC50 [1]: 7.54
